PMC8055690, “Flavonoids increase melanin production and reduce proliferation, migration and invasion of melanoma cells by blocking endolysosomal/melanosomal TPC2” (Scientific Reports, 2021)

Assays:
[1] = biological target: T1, two-pore channel 2 (hTPC2) (Homo sapiens, UniProt Q8NHX9); experiment: endolysosomal patch-clamp, block of PI([…])P2-evoked current; type: biochemical
T1 construct: gene TPCN2; hTPC2-YFP stably expressed in HEK293 cells

[2] = biological target: T1, two-pore channel 2 (hTPC2); experiment: endolysosomal patch-clamp, single concentration […]; type: cell-based

T1 sequence (Q8NHX9 whole entry): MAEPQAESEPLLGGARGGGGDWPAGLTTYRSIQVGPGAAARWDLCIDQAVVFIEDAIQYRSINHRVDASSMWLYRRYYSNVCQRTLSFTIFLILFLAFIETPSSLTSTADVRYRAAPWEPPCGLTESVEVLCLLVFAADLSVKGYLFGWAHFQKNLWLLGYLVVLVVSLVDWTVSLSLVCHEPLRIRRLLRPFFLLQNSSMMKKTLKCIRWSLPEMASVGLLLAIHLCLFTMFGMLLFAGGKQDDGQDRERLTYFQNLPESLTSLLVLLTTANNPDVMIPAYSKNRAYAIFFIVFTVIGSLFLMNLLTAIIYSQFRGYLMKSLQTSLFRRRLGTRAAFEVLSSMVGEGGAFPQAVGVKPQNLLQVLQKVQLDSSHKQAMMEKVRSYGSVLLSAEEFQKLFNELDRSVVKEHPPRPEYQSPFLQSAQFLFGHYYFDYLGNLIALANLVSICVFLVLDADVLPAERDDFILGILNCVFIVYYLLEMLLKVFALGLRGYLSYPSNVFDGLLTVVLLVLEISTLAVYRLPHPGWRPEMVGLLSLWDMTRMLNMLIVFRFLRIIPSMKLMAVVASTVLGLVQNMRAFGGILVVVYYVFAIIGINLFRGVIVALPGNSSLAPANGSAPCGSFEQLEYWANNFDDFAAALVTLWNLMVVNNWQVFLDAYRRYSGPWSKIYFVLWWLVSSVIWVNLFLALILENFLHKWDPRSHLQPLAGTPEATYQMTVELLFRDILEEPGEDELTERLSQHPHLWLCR

IC50 [1] | SMILES | endolysosomal patch-clamp, single concentration 10 μM [2]
9.5 ± 2.8 µM | COc1ccc([C@@H]2COc3c(ccc(O)c3OC)C2)c(OC)c1O [UM-9, duartin] | 
 | O=C1C[C@@H](c2ccccc2)Oc2cc(O)cc(O)c21 [TR-12] | TR-9 and TR-12 which showed variable effects on melanin generation also proved to be less efficacious inhibitors of hTPC2
2.6 ± 0.3 µM | COc1ccc(-c2coc3cc(O)cc(O)c3c2=O)cc1O [MT-8, pratensein] | 
 | COc1ccc(-c2coc3cc(O)cc(O)c3c2=O)cc1 [TR-9] | TR-9 and TR-12 which showed variable effects on melanin generation also proved to be less efficacious inhibitors of hTPC2

SMILES | IC50 [1] | endolysosomal patch-clamp, single concentration 10 μM [2]
O=C1C[C@@H](c2ccc(O)cc2)Oc2cc(O)cc(O)c21 [MT-16, naringenin] | 74 ± 9 µM | 
